Test results as given in patent US8574563B2 (Bristol-Myers Squibb Company, priority 2006, dated 2013).

System: HCV 1b-377-neo replicon cells
Test: HCV replicon assay, HCV 1b-377-neo replicon cells (1b FRET)
Assay type: cell-based, Hepatitis C virus genotype 1b
Details: Hepatitis C virus, HCV 1b-377-neo replicon cells; HCV 1b genotype; read-out: EC50 range against HCV 1b (Table 2, Range)
Summary of the method: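 FRET-based replicon assay in HCV 1b-377-neo cells, including a comparison line carrying the NS5A Y2065H mutation that confers resistance to a reference compound.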

| Structure (SMILES) | EC50 |
| --- | --- |
| C[C@@H](C(=O)N1CCC[C@H]1c1ncc(-c2ccc(-c3ccc(-c4cnc([C@@H]5CCCN5C(=O)[C@H](C)N(C)Cc5ccccc5)[nH]4)cc3)cc2)[nH]1)N(C)Cc1ccccc1 [Example 24-4f, (2S,2′S)-1,1′-(4,4′-biphenyldiylbis(1H-imidazole-5,2-diyl(2S)-2,1-pyrrolidinediyl))bis(N-benzyl-N-methyl-1-oxo-2-propanamine)] | 100 to 999 nM |
| COC(=O)N[C@@H](C)C(=O)N1CCC[C@H]1c1ncc(-c2ccc(-c3ccc(-c4cnc([C@@H]5CCCN5C(=O)[C@H](NC(=O)OC)c5ccccc5)[nH]4)c(F)c3)cc2F)[nH]1 [Example D62, methyl ((1R)-2-((2S)-2-(5-(3,3′-difluoro-4′-(2-((2S)-1-(N-(methoxycarbonyl)-L-alanyl)-2-pyrrolidinyl)-1H-imidazol-5-yl)-4-biphenylyl)-1H-imidazol-2-yl)-1-pyrrolidinyl)-2-oxo-1-phenylethyl)carbamate] | 0.001 to 0.999 nM |
| COC(=O)N[C@@H](C)C(=O)N1CCC[C@H]1c1ncc(-c2ccc(-c3ccc(-c4cnc([C@@H]5CCCN5C(=O)[C@H](Nc5ncccn5)C(C)C)[nH]4)cc3)cc2)[nH]1 [cj-11j, methyl ((1S)-1-methyl-2-oxo-2-((2S)-2-(5-(4′-(2-((2S)-1-(N-2-pyrimidinyl-D-valyl)-2-pyrrolidinyl)-1H-imidazol-5-yl)-4-biphenylyl)-1H-imidazol-2-yl)-1-pyrrolidinyl)ethyl)carbamate] | 0.001 to 0.999 nM |
| O=C([C@@H]1CCN(Cc2ccccc2)C1)N1CCC[C@H]1c1ncc(-c2ccc(-c3ccc(-c4cnc([C@@H]5CCCN5C(=O)[C@@H](c5ccccc5)N5CCCCC5)[nH]4)cc3)cc2)[nH]1 [Example 107-17] | 0.001 to 0.999 nM |
| CCCN(CCC)[C@H](C)C(=O)N1CCC[C@H]1c1ncc(-c2ccc(-c3ccc(-c4cnc([C@@H]5CCCN5C(=O)[C@@H](NC(=O)OC)C(C)C)[nH]4)cc3)cc2)[nH]1 [Example M83, methyl ((1S)-1-(((2S)-2-(5-(4′-(2-((2S)-1-(N,N-dipropyl-D-alanyl)-2-pyrrolidinyl)-1H-imidazol-5-yl)-4-biphenylyl)-1H-imidazol-2-yl)-1-pyrrolidinyl)carbonyl)-2-methylpropyl)carbamate] | 1 to 99 nM |
| COC(=O)N[C@H](C(=O)N1CCC[C@H]1c1ncc(-c2ccc(-c3ccc(-c4cnc([C@@H]5CCCN5C(=O)[C@@H](NC(=O)OC)[C@@H](C)O)[nH]4)cc3)cc2)[nH]1)[C@@H](C)O [Example M15, methyl ((1S,2R)-2-hydroxy-1-(((2S)-2-(5-(4′-(2-((2S)-1-((2S,3R)-3-hydroxy-2-((methoxycarbonyl)amino)butanoyl)-2-pyrrolidinyl)-1H-imidazol-5-yl)-4-biphenylyl)-1H-imidazol-2-yl)-1-pyrrolidinyl)carbonyl)propyl)carbamate] | 100 to 999 nM |
| CN(C)CC[C@H](N)C(=O)N1CCC[C@H]1c1ncc(-c2ccc(-c3ccc(-c4cnc([C@@H]5CCCN5C(=O)[C@@H](N)CCN(C)C)[nH]4)cc3)cc2)[nH]1 [cj-142, (3S,3′S)-4,4′-(4,4′-biphenyldiylbis(1H-imidazole-5,2-diyl(2S)-2,1-pyrrolidinediyl))bis(N~1~,N~1~-dimethyl-4-oxo-1,3-butanediamine)] | 1000 to 10000 nM |
| COC(=O)N[C@@H](C(=O)N1CCC[C@H]1c1ncc(-c2ccc(-c3ccc(-c4cnc([C@@H]5CCCN5C(=O)C(c5ccccc5C(F)(F)F)N(C)C)[nH]4)cc3)cc2)[nH]1)c1ccccc1 (stereo partly drawn) [Example 84-55, methyl ((1R)-2-((2S)-2-(5-(4′-(2-((2S)-1-((dimethylamino)(2-(trifluoromethyl)phenyl)acetyl)-2-pyrrolidinyl)-1H-imidazol-5-yl)-4-biphenylyl)-1H-imidazol-2-yl)-1-pyrrolidinyl)-2-oxo-1-phenylethyl)carbamate] | 0.001 to 0.999 nM |
| COCC(=O)N1CCC[C@H]1c1ncc(-c2ccc(-c3ccc(-c4cnc([C@@H]5CCCN5C(=O)[C@H](NC(=O)OC)c5ccccc5)[nH]4)cc3)cc2)[nH]1 [Example 55, methyl ((1R)-2-((2S)-2-(5-(4′-(2-((2S)-1-(methoxyacetyl)-2-pyrrolidinyl)-1H-imidazol-5-yl)-4-biphenylyl)-1H-imidazol-2-yl)-1-pyrrolidinyl)-2-oxo-1-phenylethyl)carbamate] | 0.001 to 0.999 nM |
| CC(=O)N1CCC[C@H]1c1ncc(-c2ccc(-c3ccc(-c4cnc([C@@H]5CCCN5C(=O)[C@@H](c5ccccc5)N5CCCCC5)[nH]4)cc3)cc2)[nH]1 [Example 107-29, 1-1((1R)-2-((2S)-2-(5-(4′-(2-((2S)-1-acetyl-2-pyrrolidinyl)-1H-imidazol-5-yl)-4-biphenylyl)-1H-imidazol-2-yl)-1-pyrrolidinyl)-2-oxo-1-phenylethyl) piperidine] | 0.001 to 0.999 nM |
| COC(=O)N[C@@H](C(=O)N1CCC[C@H]1c1ncc(-c2ccc(-c3ccc(-c4cnc([C@@H]5CCCN5C(=O)C(c5noc6ccccc56)N(C)C)[nH]4)cc3)cc2)[nH]1)c1ccccc1 (stereo partly drawn) [Example 84-49, methyl ((1R)-2-((2S)-2-(5-(4′-(2-((2S)-1-(1,2-benzisoxazol-3-yl(dimethylamino)acetyl)-2-pyrrolidinyl)-1H-imidazol-5-yl)-4-biphenylyl)-1H-imidazol-2-yl)-1-pyrrolidinyl)-2-oxo-1-phenylethyl)carbamate] | 0.001 to 0.999 nM |
| COC(=O)N[C@@H](C(=O)N1CCC[C@H]1c1ncc(-c2ccc(-c3ccc(-c4cnc([C@@H]5CCCN5C(=O)[C@@H](c5ccccc5)N5CCC(C)(O)CC5)[nH]4)cc3)cc2)[nH]1)c1ccccc1Cl [Example 107-42, methyl ((1R)-1-(2-chlorophenyl)-2-((2S)-2-(5-(4′-(2-((2S)-1-((2R)-2-(4-hydroxy-4-methyl-1-piperidinyl)-2-phenylacetyl)-2-pyrrolidinyl)-1H-imidazol-5-yl)-4-biphenylyl)-1H-imidazol-2-yl)-1-pyrrolidinyl)-2-oxoethyl) carbamate] | 0.001 to 0.999 nM |
| CN(C)[C@@H](C(=O)N1CCC[C@H]1c1ncc(-c2ccc(-c3ccc(-c4cnc([C@@H]5CCCN5C(=O)[C@@H](c5ccccc5)N(C)C)[nH]4)nc3)cc2)[nH]1)c1ccccc1 [Example 146, (1R)-2-((2S)-2-(5-(5-(4-(2-((2S)-1-((2R)-2-(dimethylamino)-2-phenylacetyl)-2-pyrrolidinyl)-1H-imidazol-5-yl)phenyl)-2-pyridinyl)-1H-imidazol-2-yl)-1-pyrrolidinyl)-N,N-dimethyl-2-oxo-1-phenylethanamine] | 0.001 to 0.999 nM |
| O=C(NC1CCCC1)N[C@@H](C(=O)N1CCC[C@H]1c1ncc(-c2ccc(-c3ccc(-c4cnc([C@@H]5CCCN5C(=O)[C@H](NC(=O)NC5CCCC5)c5ccccc5)[nH]4)cc3)cc2)[nH]1)c1ccccc1 [Example 24-4d, N′,N′′′-(4,4′-biphenyldiylbis(1H-imidazole-5,2-diyl(2S)-2,1-pyrrolidinediyl((1R)-2-oxo-1-phenyl-2,1-ethanediyl)))bis(1-cyclopentylurea)] | 0.001 to 0.999 nM |
| COC(=O)N[C@H](C(=O)N1CCC[C@H]1c1ncc(-c2ccc(-c3ccc(-c4cnc([C@@H]5CCCN5C(=O)[C@@H](Nc5cccnc5)C(C)C)[nH]4)cc3)cc2)[nH]1)[C@@H](C)OC [cj-20b, methyl ((1S,2R)-2-methoxy-1-(((2S)-2-(5-(4′-(2-((2S)-1-(N-3-pyridinyl-L-valyl)-2-pyrrolidinyl)-1H-imidazol-5-yl)-4-biphenylyl)-1H-imidazol-2-yl)-1-pyrrolidinyl)carbonyl)propyl)carbamate] | 0.001 to 0.999 nM |
| COC(=O)N[C@@H](C(=O)N1CCC[C@H]1c1ncc(-c2ccc(-c3ccc(-c4cnc([C@@H]5CCCN5C(=O)[C@H](NC(=O)OC)c5ccccc5)[nH]4)cc3)cc2)[nH]1)c1ccccc1 [Example 4, dimethyl (4,4′-biphenyldiylbis(1H-imidazole-5,2-diyl(2S)-2,1-pyrrolidinediyl((1R)-2-oxo-1-phenyl-2,1-ethanediyl)))biscarbamate] | 0.001 to 0.999 nM |
| C[C@H](O)C(=O)N1CCC[C@H]1c1nc(-c2ccc(-c3ccc(-c4cnc([C@@H]5CCCN5C(=O)[C@H](C)O)[nH]4)cc3)cc2)c[nH]1 [Example F27, (2S)-1-((2S)-2-(4-(4′-(2-((2S)-1-((2S)-2-hydroxypropanoyl)-2-pyrrolidinyl)-1H-imidazol-5-yl)-4-biphenylyl)-1H-imidazol-2-yl)-1-pyrrolidinyl)-1-oxo-2-propanol] | 1 to 99 nM |
| COC(=O)N[C@@H](C(=O)N1CCC[C@H]1c1ncc(-c2ccc(-c3ccc(-c4cnc([C@@H]5CCCN5C(=O)CN)[nH]4)cc3)cc2)[nH]1)c1ccccc1 [Example 30, methyl ((1R)-2-((2S)-2-(5-(4′-(2-((2S)-1-glycyl-2-pyrrolidinyl)-1H-imidazol-5-yl)-4-biphenylyl)-1H-imidazol-2-yl)-1-pyrrolidinyl)-2-oxo-1-phenylethyl)carbamate] | 1 to 99 nM |
| CCN(CC)CCC(NC(=O)OC)C(=O)N1CCC[C@H]1c1ncc(-c2ccc(-c3ccc(-c4cnc([C@@H]5CCCN5C(=O)[C@H](NC(=O)OC)c5ccccc5)[nH]4)cc3)cc2)[nH]1 (stereo partly drawn) [Example M66a, methyl ((1R)-2-((2S)-2-(5-(4′-(2-((2S)-1-(4-(diethylamino)-2-((methoxycarbonyl)amino)butanoyl)-2-pyrrolidinyl)-1H-imidazol-5-yl)-4-biphenylyl)-1H-imidazol-2-yl)-1-pyrrolidinyl)-2-oxo-1-phenylethyl)carbamate] | 100 to 999 nM |
| CN1C[C@H](F)C[C@H]1C(=O)N[C@@H](C(=O)N1CCC[C@H]1c1ncc(-c2ccc(-c3ccc(-c4cnc([C@@H]5CCCN5C(=O)[C@@H]5CCCO5)[nH]4)cc3)cc2)[nH]1)c1ccccc1 [Example 116, (4R)-4-fluoro-1-methyl-N-((1R)-2-oxo-1-phenyl-2-((2S)-2-(5-(4′-(2-((2S)-1-((2S)-tetrahydro-2-furanylcarbonyl)-2-pyrrolidinyl)-1H-imidazol-5-yl)-4-biphenylyl)-1H-imidazol-2-yl)-1-pyrrolidinyl)ethyl)-L-prolinamide] | 0.001 to 0.999 nM |
